Measured values: publication PMC10420655, “Evaluation of α-Glucosidase Inhibition and Antihyperglycemic Activity of Extracts Obtained from Leaves and Flowers of Rumex crispus L” (Molecules, 2023)
≈ marks a conversion by molar mass, not a printed value.

Biological target: T1, α-glucosidase type I from S. cerevisiae
T1 construct: gene MAL12
Assay: chromogenic pNPG hydrolysis, absorbance at […] nm, 96-well plate
Assay type: biochemical, Saccharomyces cerevisiae
Details: substrate p-nitrophenyl-α-D-glucopyranoside (20 µL of 5 mM stock), 0.1 M phosphate buffer pH 6.9, 37 °C, 15 min preincubation

## C[C@H]1O[C@H](O[C@H]2[C@H](O)[C@@H](O)[C@@H](O[C@H]3[C@H](O)[C@@H](O)C(O)O[C@@H]3CO)O[C@@H]2CO)[C@H](O)[C@@H](O)[C@@H]1N[C@H]1C=C(CO)[C@@H](O)[C@H](O)[C@H]1O (stereo partly shown) [Acarbose]
  IC50: 3698.0 ± 76.5 µg/mL (≈ 5.73 mM)
